Data reported in the supplement of paper PMC10307832.

Experiments:
Test in all cases: relative viability (nuclei count vs DMSO), 5 days (fraction); higher = more cells survive
Wnt-C59 + OSI-027 = compound: CC1=NC=CC(=C1)C2=CC=C(C=C2)CC(=O)NC3=CC=C(C=C3)C4=CN=CC=C4 [Wnt-C59] + COc1cccc2cc(-c3nc([C@H]4CC[C@H](C(=O)O)CC4)n4ncnc(N)c34)[nH]c12 [OSI-027] (partner 0.5 µM)
Method in brief: (§1)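 Relative viability was taken as the ratio of nuclei in treated wells to nuclei in vehicle wells. Lung cancer cell lines in 1536-well plates received compounds by pin tool one day after seeding, either one drug alone or a fixed anchor-drug dose plus five library-drug doses (not always all listed) in √10 steps. Nuclei were counted on 4× images after 5 days of treatment, and values are medians of duplicate plates.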

Wnt-C59 + Alpelisib = compound: CC1=NC=CC(=C1)C2=CC=C(C=C2)CC(=O)NC3=CC=C(C=C3)C4=CN=CC=C4 [Wnt-C59] + Cc1nc(NC(=O)N2CCC[C@H]2C(N)=O)sc1-c1ccnc(C(C)(C)C(F)(F)F)c1 [Alpelisib] (partner 2 µM)
Method in brief: as §1

Wnt-C59 + Pemetrexed = compound: CC1=NC=CC(=C1)C2=CC=C(C=C2)CC(=O)NC3=CC=C(C=C3)C4=CN=CC=C4 [Wnt-C59] + Nc1nc2[nH]cc(CCc3ccc(C(=O)N[C@@H](CCC(=O)O)C(=O)O)cc3)c2c(=O)[nH]1 [Pemetrexed] (partner 0.2 µM)
Method in brief: as §1

Wnt-C59 + Olaparib = compound: CC1=NC=CC(=C1)C2=CC=C(C=C2)CC(=O)NC3=CC=C(C=C3)C4=CN=CC=C4 [Wnt-C59] + O=C(c1cc(Cc2n[nH]c(=O)c3ccccc23)ccc1F)N1CCN(C(=O)C2CC2)CC1 [Olaparib] (partner 8 µM)
Method in brief: as §1

Cell Line	relative viability (Wnt-C59 + OSI-027; first compound 0.001 µM)	relative viability (Wnt-C59 + OSI-027; first compound 0.01 µM)	relative viability (Wnt-C59 + OSI-027; first compound 0.03162 µM)	relative viability (Wnt-C59 + OSI-027; first compound 0.1 µM)	relative viability (Wnt-C59 + Alpelisib; first compound 0.001 µM)	relative viability (Wnt-C59 + Alpelisib; first compound 0.01 µM)	relative viability (Wnt-C59 + Alpelisib; first compound 0.03162 µM)	relative viability (Wnt-C59 + Alpelisib; first compound 0.1 µM)	relative viability (Wnt-C59 + Pemetrexed; first compound 0.001 µM)	relative viability (Wnt-C59 + Pemetrexed; first compound 0.01 µM)	relative viability (Wnt-C59 + Pemetrexed; first compound 0.03162 µM)	relative viability (Wnt-C59 + Pemetrexed; first compound 0.1 µM)	relative viability (Wnt-C59 + Olaparib; first compound 0.001 µM)	relative viability (Wnt-C59 + Olaparib; first compound 0.01 µM)	relative viability (Wnt-C59 + Olaparib; first compound 0.03162 µM)	relative viability (Wnt-C59 + Olaparib; first compound 0.1 µM)
NCI-H1755	0.8	0.72	0.644	0.663	0.932	0.891	0.907	0.908	0.421	0.407	0.419	0.402	0.944	0.851	0.888	0.798
NCI-H1651	0.767	0.646	0.696	0.709	1.04	0.956	0.934	0.815	0.577	0.618	0.648	0.558	0.202	0.164	0.203	0.184
SK-MES-1	0.673	0.54	0.666	0.567	0.841	0.909	0.833	0.965	0.92	0.982	0.986	0.827	0.662	0.684	0.863	0.615
NCI-H2085	0.837	0.569	0.747	0.77	0.998	0.97	0.888	0.904	0.837	0.887	0.963	0.888	0.795	0.769	0.822	0.744
EKVX	0.728	0.574	0.648	0.565	0.931	0.783	0.73	0.668	0.376	–	0.367	0.361	0.837	–	0.906	0.72
NCI-H1437	0.859	0.927	0.859	0.911	1.07	0.917	1.09	0.946	0.36	0.299	0.31	0.331	0.626	0.629	0.62	0.605
BEN	0.256	0.309	0.306	0.305	1.11	0.993	1.37	0.957	0.707	0.738	0.754	0.846	1.32	1.04	1.27	0.94
NCI-H1666	0.825	0.849	0.873	0.876	0.874	0.895	0.974	0.942	0.865	0.799	0.828	0.869	0.732	0.758	0.711	0.817
LCLC-103H	0.458	0.533	0.527	0.498	0.951	0.969	1.04	1.16	0.452	0.467	0.482	0.505	0.81	0.737	0.699	0.793
NCI-H2009	0.699	0.701	0.695	0.64	1.15	1.16	1.14	1.18	0.988	1.11	1.07	1.04	0.644	0.765	0.734	0.727
LOU-NH91	0.76	0.571	0.718	0.738	0.744	0.597	0.683	0.79	0.386	0.384	0.345	0.38	0.966	0.873	0.955	0.883
NCI-H441	0.754	0.616	0.718	0.568	0.797	0.687	0.809	0.583	0.277	0.225	0.258	0.276	0.569	0.632	0.633	0.447
NCI-H661	0.719	0.699	0.803	0.758	0.621	0.595	0.813	0.821	0.884	0.878	0.91	0.884	0.739	0.73	0.797	0.698
NCI-H1355	0.446	0.302	0.366	0.417	1.01	0.746	0.801	0.733	1.04	1.03	1.03	0.96	0.726	0.756	0.717	0.716
HCC-366	0.774	0.542	1.02	1.04	0.453	0.287	0.412	0.297	0.164	0.16	0.163	0.155	0.346	0.359	0.362	0.34
LK-2	0.211	0.265	0.199	0.229	1.29	1.06	1.03	0.68	0.332	0.295	0.323	0.331	0.728	0.819	0.739	0.748
COR-L23	0.763	0.701	0.954	0.735	0.776	0.752	0.775	0.725	0.221	0.194	0.206	0.2	0.295	0.309	0.362	0.32
PC-14	1.01	0.897	1.18	0.731	1.01	0.92	0.995	0.934	0.131	0.138	0.109	0.143	0.26	0.248	0.342	0.292
NCI-H2087	0.53	0.476	0.572	0.592	1.18	1.05	0.996	1.05	0.629	0.72	0.697	0.709	0.608	0.657	0.688	0.722
HCC-15	0.641	0.718	0.647	0.752	0.962	0.952	0.904	0.868	0.228	0.235	0.215	0.225	0.745	0.73	0.738	0.667
